Usually solubility stands for the dissolved amount per volume that the medium holds. Read a high solubility as a readily soluble substance.

Series [1] is described as follows: Determination of the solubility (suspension shaken 24 h at room temperature, HPLC of supernatant). Conditions: thermodynamic from solid. Type of series: physicochemical. As to the method:
The test substance is suspended in water or dilute hydrochloric acid (pH 4) or in 5% strength aqueous dextrose solution. This suspension is shaken at room temperature for 24 h. After ultracentrifugation at 224 000 g for 30 min, the supernatant is diluted with DMSO and analysed by HPLC. A two-point calibration plot of the test compound in DMSO is used for quantification.
Agilent 1100 with DAD (G1315A), quat. Pump (G1311A), autosampler CTC HTS PAL, degasser (G1322A) and column thermostat (G1316A); column: Phenomenex Gemini C18, 5 μm, 50 mm×2 mm; temperature: 40° C.; eluent A: water/phosphoric acid pH 2, eluent B: acetonitrile; flow rate: 0.7 ml/min; gradient: 0-0.5 min 85% A, 15% B; ramp 0.5-3 min 10% A, 90% B; 3-3.5 min 10% A, 90% B; ramp 3.5-4 min 85% A, 15% B; 4-5 min 85% A, 15% B.
Agilent 1100 with DAD (G1315A), quat. pump (G1311A), autosampler CTC HTS PAL, degasser (G1322A) and column thermostat (G1316A); column: VDSoptilab Kromasil 100 C18, 3.5 μm, 60 mm×2.1 mm; temperature: 30° C.; eluent A: water+5 ml of perchloric acid/liter, eluent B: acetonitrile; flow rate: 0.75 ml/min; gradient: 0-0.5 min 98% A, 2% B; ramp 0.5-4.5 min 10% A, 90% B; 4.5-6 min 10% A, 90% B; ramp 6.5-6.7 min 98% A, 2% B; 6.7-7.5 min 98% A, 2% B.
The solubilities of representative exemplary embodiments in dilute hydrochloric acid (pH 4) are shown in Table1: […]

Series [2] is described as follows: Stability in buffer at various pH values. The class given is physicochemical. On the procedure:
0.3 mg of the test substance is weighed into a 2 ml HPLC vial and 0.5 ml of acetonitrile or acetonitrile/DMSO (9:1) is added. The substance is dissolved by putting the sample vessel in an ultrasonic bath for about 10 seconds. Then 0.5 ml of the respective buffer solution is added, and the sample is again treated in the ultrasonic bath.
(Buffer) solutions employed:
pH 4: 1 liter of Millipore water is adjusted to pH 4.0 with 1 N hydrochloric acid;
pH 5: 0.096 mol of citric acid and 0.2 mol of sodium hydroxide ad 1 liter of water;
pH 7.4: 90.0 g of sodium chloride, 13.61 g of potassium dihydrogen phosphate and 83.35 g of 1 N sodium hydroxide solution are made up to 1 liter with water; this solution is then further diluted 1:10 with Millipore water.
pH 8: 0.013 mol of borax and 0.021 mol of hydrochloric acid ad 1 liter of water.
5 μl portions of the test solution are analyzed by HPLC for their content of unchanged test substance, and of basic mother substance of the formula (A) formed, every hour over a period of 24 hours at 37° C. The percentage areas of the appropriate peaks are used for quantification.
HPLC method for example 1:
Agilent 1100 with DAD (G1315B), binary pump (G1312A), autosampler (G1329A), column oven (G1316A), thermostat (G1330B); column: Kromasil 100 C18, 125 mm×4 mm, 5 μm; column temperature: 30° C.; eluent A: water+5 ml perchloric acid/liter, eluent B: acetonitrile; gradient: 0 min 90% A→2.0 min 70% A→18.0 min 70% A 20.0 min 10% A→21.0 min 10% A→23.0 min 90% A→26.0 min 90% A; flow rate: 2.0 ml/min;
HPLC method for example 3:
Agilent 1100 with DAD (G1314A), binary pump (G1312A), autosampler (G1329A), column oven (G1316A), thermostat (G1330A); column: Kromasil 100 C18, 125 mm×4 mm, 5 μm; column temperature: 30° C.; eluent A: water+5 ml perchloric acid/liter, eluent B: acetonitrile; gradient: 0 min 90% A→2.0 min 64% A→18.0 min 64% A→20.0 min 10% A→21.0 min 10% A→23.0 min 90% A→26.0 min 90% A; flow rate: 2.0 ml/min UV detection: 294 nm.
HPLC method for example 11:
Agilent 1100 with DAD (G1315B), binary pump (G1312A), autosampler (G1329A), column oven (G1316A), thermostat (G1330B); column: Kromasil 100 C18, 125 mm×4 mm, 5 μm; column temperature: 30° C.; eluent A: water+5 ml of perchloric acid/liter, eluent B: acetonitrile; gradient: 0 min 90% A→2.0 min 64% A→18.0 min 64% A→20.0 min 10% A→21.0 min 10% A→23.0 min 90% A→26.0 min 90% A; flow rate: 2.0 ml/min; UV detection: 294 nm.
HPLC method for example 14:
Agilent 1100 with DAD (G1315B), binary pump (G1312A), autosampler (G1329A), column oven (G1316A), thermostat (G1330B); column: Kromasil 100 C18, 250 mm×4 mm, 5 μm; column temperature: 30° C.; eluent A: water+5 ml of perchloric acid/liter, eluent B: acetonitrile; gradient: 0 min 90% A→7.0 min 52% A→18.0 min 52% A→20.0 min 10% A→21.0 min 10% A→23.0 min 90% A -4 26.0 min 90% A; flow rate: 2.0 ml/min; UV detection: 288 nm.
HPLC method for example 18:
Agilent 1100 with DAD (G1315A), binary pump (G1312A), autosampler (G1329A), column oven (G1316A), thermostat (G1330A); column: Kromasil 100 C18, 125 mm×4 mm, 5 μm; column temperature: 30° C.; eluent A: water+5 ml of perchloric acid/liter, eluent B: acetonitrile; gradient: 0 min 90% A→6.0 min 61% A→18.0 min 61% A→20.0 min 10% A→21.0 min 10% A→23.0 min 90% A→26.0 min 90% A; flow rate: 2.0 ml/min; UV detection: 294 nm.
The ratios of the peak areas (F) at the respective time points in relation to the peak areas at the starting time are shown in Table 3 for representative exemplary embodiments: […]

A short description of series [3]: i.v. pharmacokinetics in Wistar rats. The class given is in vivo. Conditions: male Wistar rats, i.v. bolus, first measurement point. As to the method:
On the day before administration of the substance, a catheter for obtaining blood is implanted in the jugular vein of the experimental animals (male Wistar rats, body weight 200-250 g) under Isofluran® anesthesia. On the day of the experiment, a defined dose of the test substance is administered as solution into the tail vein using a Hamilton® glass syringe (bolus administration, duration of administration <10 s). Blood samples (8-12 time points) are taken through the catheter sequentially over the course of 24 h after administration of the substance. Plasma is obtained by centrifuging the samples in heparinized tubes. Acetonitrile is added to a defined plasma volume per time point to precipitate proteins. After centrifugation, test substance and, where appropriate, known cleavage products of the test substance in the supernatant are determined quantitatively using a suitable LC/MS-MS method. […] Only the active ingredient (example 8A) was detectable up to the 8-hour time point too.

Series [4] is described as follows: Determination of the solubility (suspension shaken 24 h at room temperature, HPLC of supernatant). The class given is physicochemical. The settings on record: 0.1 M hydrochloric acid, simulated gastric fluid, thermodynamic from solid.
[5] abbreviates: saline or isotonic, 5% strength aqueous dextrose solution.

Where a name gives a salt, the structure may show the parent alone.

As to `C[C@H](N)C(=O)OC[C@H](COc1ccc(-c2c(C#N)c(N)nc(SCc3coc(-c4ccc(Cl)cc4)n3)c2C#N)cc1)OC(=O)[C@H](C)N` [Example 1, (2S)-3-{4-[2-Amino-6-({[2-(4-chlorophenyl)-1,3-oxazol-4-yl]methyl}sulfanyl)-3,5-dicyanopyridin-4-yl]phenoxy}propane-1,2-diyl(2S,2′S)-bis(2-aminopropanoate)dihydrochloride], the solubility at 24 h in series [1] (aqueous buffer, dilute hydrochloric acid (pH 4)) is above 500 µg/mL; in series [1] (setting [5]), above 500 µg/mL. Also, the “% test substance after 4 h [F(t = 4 h) × 100/F(t = 0 h)]” value in series [2] (pH 4, 37° C.) was found to be 99%; in series [2] (pH 7.4, 37° C.) it was 90%. The “% test substance after 24 h [F(t = 24 h) × 100/F(t = 0 h)]” value in series [2] (pH 4, 37° C.) is 98%; in series [2] (pH 7.4, 37° C.), 53%. The “detectability of the test substance (prodrug) in plasma after i.v. administration” value in series [3] was “no longer detectable”.

Regarding `N#Cc1c(N)nc(SCc2coc(-c3ccc(Cl)cc3)n2)c(C#N)c1-c1ccc(OC[C@H](O)CO)cc1` [Example 8A, 2-Amino-6-({[2-(4-chlorophenyl)-1,3-oxazol-4-yl]methyl}sulfanyl)-4-(4-{[(2R)-2,3-dihydroxypropyl]oxy}phenyl)pyridine-3,5-dicarbonitrile, reference compound], the results for the solubility at 24 h in series [1] (setting [5]) and in series [4] were below 1.2 µg/mL and below 0.1 µg/mL, respectively.
